# Patent US12227495B2, “Herbicidal compounds” (SYNGENTA CROP PROTECTION AG, priority 2018, dated 2025)
# Columns and labels:
# Format in all cases: in vivo
# [1] = system: Echinochloa crus-galli (ECHCG); experiment: Post-emergence herbicide test, glasshouse, percentage damage; details: 1000 g/ha, evaluated after 13 days
# How it was run: (§1)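 Pots of standard soil were sown and kept in a glasshouse at 24/16 °C day/night, 14 h light, 65% humidity; plants were sprayed one day after sowing (pre-emergence) or after 8 days (post-emergence) at 500 g/ha unless otherwise stated. Damage was scored after 13 days on a five-point scale (5=81-100%; 1=0-20%).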
# [2] = system: Ipomoea hederacea (IPOHE); experiment: as above; details: 1000 g/ha, evaluated after 13 days
# How it was run: as §1
# [3] = system: Solanum nigrum (SOLNI); experiment: as above; details: 1000 g/ha, evaluated after 13 days
# How it was run: as §1
# [4] = system: Amaranthus retoflexus (AMARE); experiment: as above; details: 1000 g/ha, evaluated after 13 days
# How it was run: as §1
# [5] = system: Lolium perenne (LOLPE); experiment: as above; details: 1000 g/ha, evaluated after 13 days
# How it was run: as §1
# [6] = system: Setaria faberi (SETFA); experiment: as above; details: 1000 g/ha, evaluated after 13 days
# How it was run: as §1
# [7] = system: Echinochloa crus-galli (ECHCG); experiment: Pre-emergence herbicide test, glasshouse, percentage damage; details: rate 1000 g/ha, evaluated after 13 days
# How it was run: as §1
# [8] = system: Ipomoea hederacea (IPOHE); experiment: as above; details: rate 1000 g/ha, evaluated after 13 days
# How it was run: as §1
# [9] = system: Solanum nigrum (SOLNI); experiment: as above; details: rate 1000 g/ha, evaluated after 13 days
# How it was run: as §1
# [10] = system: Amaranthus retoflexus (AMARE); experiment: as above; details: rate 1000 g/ha, evaluated after 13 days
# How it was run: as §1
# [11] = system: Lolium perenne (LOLPE); experiment: as above; details: rate 1000 g/ha, evaluated after 13 days
# How it was run: as §1
# [12] = system: Setaria faberi (SETFA); experiment: as above; details: rate 1000 g/ha, evaluated after 13 days
# How it was run: as §1
SMILES,"percentage damage caused to the plant, ECHCG [1]","percentage damage caused to the plant, IPOHE [2]","percentage damage caused to the plant, SOLNI [3]","percentage damage caused to the plant, AMARE [4]","percentage damage caused to the plant, LOLPE [5]","percentage damage caused to the plant, SETFA [6]",Pre-emergence Test ECHCG percentage damage (five point scale) [7],Pre-emergence Test IPOHE percentage damage (five point scale) [8],Pre-emergence Test SOLNI percentage damage (five point scale) [9],Pre-emergence Test AMARE percentage damage (five point scale) [10],Pre-emergence Test LOLPE percentage damage (five point scale) [11],Pre-emergence Test SETFA percentage damage (five point scale) [12]
Fc1cc(Cl)cnc1Oc1ccccc1-n1cc(C(F)(F)F)nn1 [Compound A82],4 (4=61-80%),5 (5=81-100%),5 (5=81-100%),5 (5=81-100%),5 (5=81-100%),5 (5=81-100%),5 (5=81-100%),5 (5=81-100%),4 (4=61-80%),5 (5=81-100%),5 (5=81-100%),5 (5=81-100%)
Fc1cc(Cl)cnc1Oc1c(Br)cccc1-c1cc(C(F)F)no1 [Compound A83],4 (4=61-80%),2 (2=21-40%),4 (4=61-80%),5 (5=81-100%),4 (4=61-80%),4 (4=61-80%),2 (2=21-40%),1 (1=0-20%),1 (1=0-20%),4 (4=61-80%),1 (1=0-20%),2 (2=21-40%)
N#Cc1cc(F)cnc1Oc1cccc(Br)c1-c1cc(C(F)F)no1 [Compound A84],5 (5=81-100%),5 (5=81-100%),5 (5=81-100%),5 (5=81-100%),5 (5=81-100%),5 (5=81-100%),5 (5=81-100%),5 (5=81-100%),4 (4=61-80%),5 (5=81-100%),5 (5=81-100%),5 (5=81-100%)
N#Cc1cc(F)cnc1Oc1cccc(Cl)c1-c1cc(C(F)F)no1 [Compound A85],5 (5=81-100%),5 (5=81-100%),5 (5=81-100%),5 (5=81-100%),5 (5=81-100%),5 (5=81-100%),5 (5=81-100%),5 (5=81-100%),5 (5=81-100%),5 (5=81-100%),5 (5=81-100%),5 (5=81-100%)
FC(F)c1cc(-c2c(Br)cccc2Oc2cc(Cl)ccn2)on1 [Compound A86],4 (4=61-80%),4 (4=61-80%),4 (4=61-80%),4 (4=61-80%),4 (4=61-80%),4 (4=61-80%),5 (5=81-100%),1 (1=0-20%),2 (2=21-40%),4 (4=61-80%),4 (4=61-80%),5 (5=81-100%)
N#Cc1ccnc(Oc2cccc(Br)c2-c2cc(C(F)F)no2)c1 [Compound A87],3 (3=41-60%),3 (3=41-60%),4 (4=61-80%),4 (4=61-80%),3 (3=41-60%),5 (5=81-100%),4 (4=61-80%),1 (1=0-20%),3 (3=41-60%),4 (4=61-80%),4 (4=61-80%),5 (5=81-100%)
O=[N+]([O-])c1ccc(Oc2cccc(Br)c2-c2cc(C(F)F)no2)nc1 [Compound A88],4 (4=61-80%),2 (2=21-40%),4 (4=61-80%),5 (5=81-100%),3 (3=41-60%),4 (4=61-80%),5 (5=81-100%),1 (1=0-20%),4 (4=61-80%),5 (5=81-100%),4 (4=61-80%),5 (5=81-100%)
FC(F)c1cc(-c2c(Br)cccc2Oc2ncc(Cl)cc2Cl)on1 [Compound A89],4 (4=61-80%),4 (4=61-80%),4 (4=61-80%),5 (5=81-100%),3 (3=41-60%),5 (5=81-100%),4 (4=61-80%),3 (3=41-60%),2 (2=21-40%),4 (4=61-80%),2 (2=21-40%),4 (4=61-80%)
FC(F)c1cc(-c2c(Br)cccc2Oc2ccc(C(F)(F)F)cn2)on1 [Compound A90],4 (4=61-80%),4 (4=61-80%),4 (4=61-80%),5 (5=81-100%),4 (4=61-80%),5 (5=81-100%),5 (5=81-100%),3 (3=41-60%),4 (4=61-80%),4 (4=61-80%),5 (5=81-100%),5 (5=81-100%)
N#Cc1ccnc(Oc2cccc(Cl)c2-c2cc(C(F)F)no2)c1 [Compound A91],4 (4=61-80%),4 (4=61-80%),4 (4=61-80%),4 (4=61-80%),4 (4=61-80%),4 (4=61-80%),5 (5=81-100%),4 (4=61-80%),3 (3=41-60%),4 (4=61-80%),4 (4=61-80%),5 (5=81-100%)
FC(F)c1cc(-c2c(Cl)cccc2Oc2cc(Cl)ccn2)on1 [Compound A92],4 (4=61-80%),4 (4=61-80%),4 (4=61-80%),4 (4=61-80%),4 (4=61-80%),4 (4=61-80%),1 (1=0-20%),4 (4=61-80%),2 (2=21-40%),4 (4=61-80%),5 (5=81-100%),5 (5=81-100%)
Fc1cc(Cl)cnc1Oc1c(F)cccc1-c1cc(C(F)F)no1 [Compound A93],4 (4=61-80%),3 (3=41-60%),3 (3=41-60%),5 (5=81-100%),3 (3=41-60%),5 (5=81-100%),4 (4=61-80%),3 (3=41-60%),4 (4=61-80%),4 (4=61-80%),3 (3=41-60%),4 (4=61-80%)
